The target in assay [1] is T1, FAAH (Mus musculus, UniProt O08914).
T1 construct: Proteomes (mouse brain membrane fraction or cell lysates); from tissue; host or cells: mouse brain membrane fraction (or cell lysates)
T1 sequence (O08914 1-579): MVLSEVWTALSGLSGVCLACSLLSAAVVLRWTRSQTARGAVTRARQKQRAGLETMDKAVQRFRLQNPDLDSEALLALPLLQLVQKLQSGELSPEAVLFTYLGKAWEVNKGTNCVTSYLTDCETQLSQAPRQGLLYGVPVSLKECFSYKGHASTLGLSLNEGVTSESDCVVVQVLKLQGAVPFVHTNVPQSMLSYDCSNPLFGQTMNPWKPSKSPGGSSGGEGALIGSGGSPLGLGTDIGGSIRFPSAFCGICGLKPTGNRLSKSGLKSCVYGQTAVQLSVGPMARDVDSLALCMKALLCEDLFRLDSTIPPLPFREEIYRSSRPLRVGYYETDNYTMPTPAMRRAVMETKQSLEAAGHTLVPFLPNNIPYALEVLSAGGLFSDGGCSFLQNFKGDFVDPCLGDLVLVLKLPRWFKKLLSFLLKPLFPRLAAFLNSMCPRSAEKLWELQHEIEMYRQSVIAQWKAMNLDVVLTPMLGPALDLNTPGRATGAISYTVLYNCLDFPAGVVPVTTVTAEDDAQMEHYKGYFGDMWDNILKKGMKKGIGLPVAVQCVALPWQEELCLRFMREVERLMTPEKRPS
As to the kind of experiment: In vitro competitive activity-based protein profiling (mouse), FAAH gel band. The assay is classed as biochemical. The following applies: for IC50: mouse; for inhibition at 1 µM: read-out: FAAH % inh. 1 μM. On the procedure:
(§1) In Vitro Competitive Activity-Based Protein Profiling (Mouse).
(§2) Proteomes (mouse brain membrane fraction or cell lysates) (50 μL, 1.0 mg/mL total protein concentration) were preincubated with varying concentrations of inhibitors at 37° C. After 30 min, FP-Rh or HT-01 (1.0 μL, 50 μM in DMSO) was added and the mixture was incubated for another 30 min at 37° C. Reactions were quenched with SDS loading buffer (15 μL—4×) and run on SDS-PAGE. Following gel imaging, serine hydrolase activity was determined by measuring fluorescent intensity of gel bands corresponding to MAGL, ABHD6, and FAAH, using ImageJ 1.43u software.

The target in assay [2] is T2, MAGL (Mus musculus, UniProt O35678).
T2 construct: Proteomes (mouse brain membrane fraction or cell lysates); from tissue; host or cells: mouse brain membrane fraction (or cell lysates)
T2 sequence (O35678 1-303): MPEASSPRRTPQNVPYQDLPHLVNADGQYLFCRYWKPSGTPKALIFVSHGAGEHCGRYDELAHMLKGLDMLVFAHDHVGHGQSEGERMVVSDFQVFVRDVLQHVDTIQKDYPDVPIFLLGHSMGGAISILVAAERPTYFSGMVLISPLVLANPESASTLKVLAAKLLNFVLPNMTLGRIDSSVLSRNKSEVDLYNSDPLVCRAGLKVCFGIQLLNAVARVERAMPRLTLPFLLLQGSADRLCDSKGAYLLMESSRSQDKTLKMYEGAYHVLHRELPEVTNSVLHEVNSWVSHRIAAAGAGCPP
The assay is described as follows: In vitro competitive activity-based protein profiling (mouse), MAGL gel band. To be noted: for IC50: mouse; for inhibition at 1 µM: read-out: MAGL % inh. 1 μM. Type of assay: biochemical. How it is done: as §1, §2

As usually defined, the IC50 is the concentration needed to halve the response being measured. Low readings indicate higher potency, high ones lower potency. `CC(=O)N(C)c1ccn(C(=O)N2CCN(Cc3ccc(C(F)(F)F)cc3N3CCCC3)CC2)n1` [Example 2, N-methyl-N-(1-(4-(2-(pyrrolidin-1-yl)-4-(trifluoromethyl)benzyl)piperazine-1-carbonyl)-1H-pyrazol-3-yl)acetamide]: the IC50 is 1000 to 10000 nM in assay [1] and 100 to 1000 nM in assay [2]. In addition, the figures for the inhibition at 1 µM in assay [1] and in assay [2] were 0 to 25% and at least 75%, respectively.
The matching figures for `CC(=O)Nc1ccn(C(=O)N2CCN(Cc3ccc(Cl)cc3N3CCC(F)CC3)CC2)n1` [Example 7, N-(1-(4-(4-chloro-2-(4-fluoropiperidin-1-yl)benzyl)piperazine-1-carbonyl)-1H-pyrazol-3-yl)acetamide]: 1000 to 10000 nM, at most 100 nM, 0 to 25% and at least 75%.
The matching figures for `CC(=O)Nc1ccn(C(=O)N2CCC3(CCCN3Cc3ccc(C(F)(F)F)cc3N3CCCC3)CC2)n1` [Example 8, N-(1-(1-(2-(pyrrolidin-1-yl)-4-(trifluoromethyl)benzyl)-1,8-diazaspiro[4.5]decane-8-carbonyl)-1H-pyrazol-3-yl)acetamide]: 1000 to 10000 nM, at most 100 nM, 0 to 25% and at least 75%.
The matching figures for `CC(=O)Nc1ccn(C(=O)N2CCC3(CCCN3Cc3ccc(Cl)cc3N3CCC(F)(F)CC3)CC2)n1` [Example 11, N-(1-(1-(4-chloro-2-(4,4-difluoropiperidin-1-yl)benzyl)-1,8-diazaspiro[4.5]decane-8-carbonyl)-1H-pyrazol-3-yl)acetamide]: 1000 to 10000 nM, 100 to 1000 nM, 0 to 25% and at least 75%.
For the compound `CC(=O)Nc1ccn(C(=O)N2CCC3(CCCN3Cc3ccc(Cl)cc3N3CCN(C4CC4)CC3)CC2)n1` [Example 13, N-(1-(1-(4-chloro-2-(4-cyclopropylpiperazin-1-yl)benzyl)-1,8-diazaspiro[4.5]decane-8-carbonyl)-1H-pyrazol-3-yl)acetamide], the IC50 in assay [1] was in the range of 1000 to 10000 nM; in assay [2], 100 to 1000 nM. The inhibition at 1 µM is 0 to 25% in assay [1] and at least 75% in assay [2].
Turning to `CCN1CCN(c2cc(Cl)ccc2CN2CCCC23CCN(C(=O)n2ccc(NC(C)=O)n2)CC3)CC1` [Example 15, N-(1-(1-(4-chloro-2-(4-ethylpiperazin-1-yl)benzyl)-1,8-diazaspiro[4.5]decane-8-carbonyl)-1H-pyrazol-3-yl)acetamide], in assay [1], the IC50 fell in the range of 1000 to 10000 nM and the inhibition at 1 µM lay within 0 to 25%. Further, in assay [2], the IC50 was in the range of 100 to 1000 nM and the inhibition at 1 µM was at least 75%.
Regarding `CC(=O)Nc1ccn(C(=O)N2CCC3(CCCN3Cc3ccc(Cl)cc3N3CCOCC3)CC2)n1` [Example 16, N-(1-(1-(4-chloro-2-morpholinobenzyl)-1,8-diazaspiro[4.5]decane-8-carbonyl)-1H-pyrazol-3-yl)acetamide], in assay [1], the IC50 was 1000 to 10000 nM and the inhibition at 1 µM lay in the range of 0 to 25%. Also, in assay [2], the IC50 is 100 to 1000 nM and the inhibition at 1 µM was at least 75%.
Turning to `CC(=O)Nc1ccn(C(=O)N2CCC3(CCCN3Cc3ccc(Cl)cc3N3CC4COCC4C3)CC2)n1` (stereo not shown) [Example 17, N-(1-(1-(4-chloro-2-(dihydro-1H-furo[3,4-c]pyrrol-5(3H,6H,6aH)-yl)benzyl)-1,8-diazaspiro[4.5]decane-8-carbonyl)-1H-pyrazol-3-yl)acetamide], the IC50 is 1000 to 10000 nM in assay [1] and at most 100 nM in assay [2]. In addition, the results for the inhibition at 1 µM in assay [1] and in assay [2] were 0 to 25% and at least 75%, respectively.
The matching figures for `CC(=O)Nc1ccn(C(=O)N2CCC3(CCCN3Cc3ccc(C(F)(F)F)cc3N3CCCCC3)CC2)n1` [Example 19, N-(1-(1-(2-(piperidin-1-yl)-4-(trifluoromethyl)benzyl)-1,8-diazaspiro[4.5]decane-8-carbonyl)-1H-pyrazol-3-yl)acetamide]: 1000 to 10000 nM, at most 100 nM, 0 to 25% and at least 75%.
The matching figures for `CC(=O)Nc1ccn(C(=O)N2CCC3(CCCN3Cc3ccc(C(F)(F)F)cc3N3CCN(S(C)(=O)=O)CC3)CC2)n1` [Example 21, N-(1-(1-(2-(4-(methylsulfonyl)piperazin-1-yl)-4-(trifluoromethyl)benzyl)-1,8-diazaspiro[4.5]decane-8-carbonyl)-1H-pyrazol-3-yl)acetamide]: 1000 to 10000 nM, 100 to 1000 nM, 0 to 25% and at least 75%.
Consider `CC(=O)Nc1ccn(C(=O)N2CCC3(CCCN3Cc3ccc(C(F)(F)F)cc3N3CCN(C(C)=O)CC3)CC2)n1` [Example 22, N-(1-(1-(2-(4-acetylpiperazin-1-yl)-4-(trifluoromethyl)benzyl)-1,8-diazaspiro[4.5]decane-8-carbonyl)-1H-pyrazol-3-yl)acetamide], for which, in assay [1], the IC50 lay within 1000 to 10000 nM and the inhibition at 1 µM lay in the range of 0 to 25%. Besides, in assay [2], the IC50 fell in the range of 100 to 1000 nM and the inhibition at 1 µM was at least 75%.
The matching figures for `CC(=O)Nc1ccn(C(=O)N2CCC3(CCCN3Cc3ccc(C)c(C(F)(F)F)c3)CC2)n1` [Example 23, N-(1-(1-(4-methyl-3-(trifluoromethyl)benzyl)-1,8-diazaspiro[4.5]decane-8-carbonyl)-1H-pyrazol-3-yl)acetamide]: 1000 to 10000 nM, 0 to 25%, at most 100 nM and at least 75%.
For `CC(=O)Nc1ccn(C(=O)N2CCC3(CCCN3Cc3ccc(C(F)(F)F)c(Cl)c3)CC2)n1` [Example 24, N-(1-(1-(3-chloro-4-(trifluoromethyl)benzyl)-1,8-diazaspiro[4.5]decane-8-carbonyl)-1H-pyrazol-3-yl)acetamide], in assay [1], the IC50 was 1000 to 10000 nM and the inhibition at 1 µM is 0 to 25%. In assay [2], the IC50 was at most 100 nM and the inhibition at 1 µM was at least 75%.
For the compound `CC(=O)Nc1ccn(C(=O)N2CCC3(CCCN3Cc3ccc(Cl)c(C(F)(F)F)c3)CC2)n1` [Example 25, N-(1-(1-(4-chloro-3-(trifluoromethyl)benzyl)-1,8-diazaspiro[4.5]decane-8-carbonyl)-1H-pyrazol-3-yl)acetamide], the values for the inhibition at 1 µM in assay [1] and in assay [2] were 25 to 50% and at least 75%, respectively.
Regarding `CC(=O)Nc1ccn(C(=O)N2CCC3(CCCN3Cc3ccc(C(F)(F)F)cc3N3CCC4(C3)CN(S(C)(=O)=O)C4)CC2)n1` [Example 27, N-(1-(1-(2-(2-(methylsulfonyl)-2,6-diazaspiro[3.4]octan-6-yl)-4-(trifluoromethyl)benzyl)-1,8-diazaspiro[4.5]decane-8-carbonyl)-1H-pyrazol-3-yl)acetamide], the IC50 was 1000 to 10000 nM in assay [1] and at most 100 nM in assay [2]. Further, the figures for the inhibition at 1 µM in assay [1] and in assay [2] were 0 to 25% and at least 75%, respectively.
Turning to `CC(=O)Nc1ccn(C(=O)N2CCC3(CCCN3Cc3ccc(C(F)(F)F)cc3N3CCN(C4CC4)CC3)CC2)n1` [Example 30, N-(1-(1-(2-(4-cyclopropylpiperazin-1-yl)-4-(trifluoromethyl)benzyl)-1,8-diazaspiro[4.5]decane-8-carbonyl)-1H-pyrazol-3-yl)acetamide], in assay [1], the IC50 was 1000 to 10000 nM and the inhibition at 1 µM was in the range of 0 to 25%. In addition, in assay [2], the IC50 was in the range of 100 to 1000 nM and the inhibition at 1 µM is at least 75%.
Turning to `CC(=O)Nc1ccn(C(=O)N2CCC3(CCCN3Cc3ccc(Cl)cc3N3CCN(S(C)(=O)=O)CC3)CC2)n1` [Example 35, N-(1-(1-(4-chloro-2-(4-(methylsulfonyl)piperazin-1-yl)benzyl)-1,8-diazaspiro[4.5]decane-8-carbonyl)-1H-pyrazol-3-yl)acetamide], in assay [1], the IC50 was in the range of 1000 to 10000 nM and the inhibition at 1 µM fell in the range of 0 to 25%. Moreover, in assay [2], the IC50 was 100 to 1000 nM and the inhibition at 1 µM was at least 75%.
As to `CS(=O)(=O)Nc1ccn(C(=O)N2CCN(Cc3ccc(C(F)(F)F)c(C4CCN(CC(=O)O)CC4)c3)CC2)n1` [Example 119, 2-(4-(5-((4-(3-(methylsulfonamido)-1H-pyrazole-1-carbonyl)piperazin-1-yl)methyl)-2-(trifluoromethyl)phenyl)piperidin-1-yl)acetic Acid], the IC50 in assay [2] is at most 100 nM.
